According to US8933029B2, “Antimicrobial and anti-inflammatory peptides” (Carrus Capital Corporation, priority 2001, dated 2015):
Marks after values point to notes of the source that are not given here. Ends that are not written are not given here.

Key:
TPA-induced ear edema = assay: TPA ear edema model; conditions: for Topical Dose (% change vs. vehicle) 1.0%: topical 1.0%; for Topical Dose (% change vs. vehicle) 1.0% / Topical Dose (% change vs. vehicle) 0.1% / Topical Dose (% change vs. vehicle) 5 0%: ear biopsy weight six hours after TPA; for Systemic Dose (% change vs. vehicle) 5 mg/kg: systemic 5 mg/kg; for Topical Dose (% change vs. vehicle) 0.1%: topical 0.1%; for Topical Dose (% change vs. vehicle) 5 0%: topical 5 0%
[1] = system: oxazolone contact hypersensitivity (ear inflammation); assay: Oxazolone contact hypersensitivity model; type: in vivo, CD-1 mice; conditions: Dosage of 0.1%, applied to ear one hour after oxazolone challenge, ear punch weight after 24 h, 70% EtOH/30% propylene glycol vehicle
Method: Briefly, a 3.0% (w/v) solution of oxazolone in acetone/corn oil (5:1) is applied topically to the skin on the shaved abdomens of mice of approximately the same weight and approximately the same age on day 0. […] Twenty-four hours later a dermal biopsy punch of the treated ear is taken and weighed.
CD-1 mice are treated with 3% oxazolone (Sigma) (30 mg/ml) in corn oil:acetone on a shaved abdomen. All solutions are sonicated for 7 minutes. Five days later, the mice are challenged with a 2% oxazolone (20 mg/ml) in acetone on the left ear, with the right ear being left untreated (control). One hour after challenge, the candidate peptide in a 70% EtOH/30% propylene glycol formulation (vehicle) was applied to the left ear, with the right ear being left untreated. After 24 h, 7 mm ear punches are taken from each ear of the mice. The ear punches are placed on a scale and the difference between the treated and untreated ears were compared. The percent inhibition of inflammation was calculated by comparing the mean of each treated group to the control group. The positive control is hydrocortisone (a known anti-inflammatory agent). Most of the indolicidin peptides inhibited inflammation as well as hydrocortisone.

IL-1α = assay: Inhibition of cytokine production in PHA-activated PBLs (ELISA); type: cell-based; conditions: human PBLs, 10 μg/ml PHA, 48 hours, supernatant ELISA
Method: (§1) Briefly, human PBLs are collected from a subject and plated at 10^6 cells/ml in serum free lymphocyte growth medium, stimulated with 10 μg/ml phytohemagglutinin (PHA) in the presence or absence of the candidate peptide. The PBLs are incubated at 37° C. at 5% CO2 for 48 h, at which point the supernatants were collected. An ELISA is performed on the supernatants to detect a cytokine of interest (e.g., IL-1, TNF-α, IFN-γ) and the cells are incubated for another 72 h to measure proliferation (see, e.g., Sigusch et al., J. Periodontol. 69:1098, 1998).
(§2) Human peripheral blood lymphocytes (PBLs) were collected from a healthy adult […] and plated at 10^6 cells/ml in serum free lymphocyte growth media in a 96-well plate. The PBLs were stimulated with 10 μg/ml PHA in the presence or absence of test sample and incubated at 37° C. at 5% CO2 for 48 hours. Collected and pooled supernatants were stored at −20° C., then assayed with commercially available ELISA kits (Endogen and Biosource) and assayed for viability with LDH (Bochringer Mannheim). The cells remaining after supernatant removal were returned to the incubator and proliferation was determined at 72 hours by using AlamarBlue (Alamar Bioscience). Compounds were tested at 1, 10, 100 and 1000 μg/ml. The peptides were effective at inhibiting cytokine production and PBL proliferation (Table 4), which indicates these peptides can function as anti-inflammatory agents.

IL-10 = assay: as above; type: cell-based; conditions: human PBLs, 10 μg/ml PHA, 48 hours, supernatant ELISA
Method: as §1, §2

IL-12 = assay: as above; type: cell-based; conditions: human PBLs, 10 μg/ml PHA, 48 hours, supernatant ELISA
Method: as §1, §2

TNFα = assay: as above; type: cell-based; conditions: human PBLs, 10 μg/ml PHA, 48 hours, supernatant ELISA
Method: as §1, §2

IFNγ = assay: as above; type: cell-based; conditions: human PBLs, 10 μg/ml PHA, 48 hours, supernatant ELISA
Method: as §1, §2

IL-6 = assay: as above; type: cell-based; conditions: human PBLs, 10 μg/ml PHA, 48 hours, supernatant ELISA
Method: as §1, §2

IL-4 = assay: as above; type: cell-based; conditions: human PBLs, 10 μg/ml PHA, 48 hours, supernatant ELISA
Method: as §1, §2

IL-2 = assay: as above; type: cell-based; conditions: human PBLs, 10 μg/ml PHA, 48 hours, supernatant ELISA
Method: as §1, §2

[2] = formulated in 50% ethanol/5 mM lactate buffer (*)

For “ILRWVWWVWRRK-NH2 [Peptide 11F4CN, I L R W V W W V W R R K]”, the “Topical Dose (% change vs. vehicle) 1.0%” value (TPA-induced ear edema; formulated in 95% ethanol) was −55%.

With “L R F L K W A F R L W K L (LRFLKWAFRLWKL-{CN}) [Peptide 11J45CN]” the “Topical Dose (% change vs. vehicle) 1.0%” value (TPA-induced ear edema; formulated in 95% ethanol) was −69%.

For “R L G G G G G G R R (RLGGGGGGRR-{CN}) [Peptide 11F83CN]”, the “Topical Dose (% change vs. vehicle) 1.0%” value (TPA-induced ear edema; formulated in 95% ethanol) was −28%.

In the case of “R L L V W W V L R R (RLLVWWVLRR-{CN}) [Peptide 11F82CN]”, the “Topical Dose (% change vs. vehicle) 1.0%” value (TPA-induced ear edema; formulated in 95% ethanol) is reported as −62%.

In the case of “R L W V V V V W R R (RLWVVVVWRR-{CN}) [Peptide 11F65CN]”, the “Systemic Dose (% change vs. vehicle) 5 mg/kg” value (TPA-induced ear edema) is reported as −15% and the “Topical Dose (% change vs. vehicle) 1.0%” value (TPA-induced ear edema; formulated in 95% ethanol) is reported as −94%.

With “R L W V W W V W (RLWVWWVW-{CN}) [Peptide 11F11CN]” the “Topical Dose (% change vs. vehicle) 0.1%” value (TPA-induced ear edema; [2]) was −49* %, the “Topical Dose (% change vs. vehicle) 1.0%” value (TPA-induced ear edema; [2]) was −75* % and the “Topical Dose (% change vs. vehicle) 1.0%” value (TPA-induced ear edema; formulated in 95% ethanol) was −87%.

For “R L W W Q Q W W R R (RLWWQQWWRR-{CN}) [Peptide 11F60CN]”, the “Topical Dose (% change vs. vehicle) 1.0%” value (TPA-induced ear edema; formulated in 95% ethanol) was −41%.

With “RLVVWVVWRR-NH2 [Peptide 11F66CN, R L V V W V V W R R]” the “Topical Dose (% change vs. vehicle) 0.1%” value (TPA-induced ear edema; [2]) was −17* %, the “Topical Dose (% change vs. vehicle) 1.0%” value (TPA-induced ear edema; [2]) was −64* % and the “Topical Dose (% change vs. vehicle) 5 0%” value (TPA-induced ear edema; [2]) was −81* %. The “% Inhibition of Inflammation” value [1] was 79.85%, the “IC50 IL-1α” value (IL-1α) was >1000 µg/mL and the “IC50 IL-10” value (IL-10) was 40 µg/mL. For the same substance, the “IC50 IL-12” value (IL-12) was 280 µg/mL, the “IC50 TNFα” value (TNFα) was 110 µg/mL and the “IC50 IFNγ” value (IFNγ) was 125 µg/mL. The “IC50 IL-6” value (IL-6) was 1 µg/mL, the “IC50 IL-4” value (IL-4) was >1000 µg/mL and the “IC50 IL-2” value (IL-2) was 480 µg/mL.

RLVVWVVWRRX-OH [Peptide 11F110] was tested, and the “Topical Dose (% change vs. vehicle) 0.1%” value (TPA-induced ear edema; [2]) was −45* %, the “Topical Dose (% change vs. vehicle) 1.0%” value (TPA-induced ear edema; [2]) was −83* % and the “Topical Dose (% change vs. vehicle) 5 0%” value (TPA-induced ear edema; [2]) was −87* %.

“RLWVWWVWRR-NH2 [Peptide 11F17CN, R L W V W W V W R R]” was tested, and the “% Inhibition of Inflammation” value [1] was 71.60%, the “IC50 IL-1α” value (IL-1α) was 45 µg/mL and the “IC50 IL-10” value (IL-10) was 18 µg/mL. The “IC50 IL-12” value (IL-12) was 120 µg/mL, the “IC50 TNFα” value (TNFα) was 70 µg/mL and the “IC50 IFNγ” value (IFNγ) was 93 µg/mL. For the same substance, the “IC50 IL-6” value (IL-6) was 500 µg/mL, the “IC50 IL-4” value (IL-4) was 220 µg/mL and the “IC50 IL-2” value (IL-2) was >1000 µg/mL.

With “RLWVWWVWRRK-NH2 [Peptide 11F12CN, R L W V W W V W R R K]” the “Topical Dose (% change vs. vehicle) 1.0%” value (TPA-induced ear edema; formulated in 95% ethanol) was −56%, the “% Inhibition of Inflammation” value [1] was 86.50% and the “IC50 IL-1α” value (IL-1α) was 500 µg/mL. The “IC50 IL-10” value (IL-10) was 30 µg/mL, the “IC50 IL-12” value (IL-12) was 120 µg/mL and the “IC50 TNFα” value (TNFα) was 68 µg/mL. The “IC50 IFNγ” value (IFNγ) was 250 µg/mL, the “IC50 IL-6” value (IL-6) was 140 µg/mL and the “IC50 IL-4” value (IL-4) was 325 µg/mL. For the same substance, the “IC50 IL-2” value (IL-2) was 570 µg/mL.

In the case of “W (Dab) W W (Dab) P (Dab) W (Dab) W P (Dab) W [Peptide 11J68CN]”, the “Topical Dose (% change vs. vehicle) 1.0%” value (TPA-induced ear edema; [2]) is reported as −55* % and the “Topical Dose (% change vs. vehicle) 5 0%” value (TPA-induced ear edema; [2]) is reported as −85* %.

“W (Orn) W W (Orn) P (Orn) W (Orn) W P (Orn) W [Peptide 11J67CN]” was tested, and the “Topical Dose (% change vs. vehicle) 1.0%” value (TPA-induced ear edema; [2]) was −33* % and the “Topical Dose (% change vs. vehicle) 5 0%” value (TPA-induced ear edema; [2]) was −66* %.

For “W R L L K L A L R L L K W (WRLLKLALRLLKW-{CN}) [Peptide 11J44CN]”, the “Systemic Dose (% change vs. vehicle) 5 mg/kg” value (TPA-induced ear edema) was −32% and the “Topical Dose (% change vs. vehicle) 1.0%” value (TPA-induced ear edema; formulated in 95% ethanol) was −88%.

With “WRWWKPKWRWPKW-NH2 [Peptide 11J02CN, W R W W K P K W R W P K W]” the “Topical Dose (% change vs. vehicle) 1.0%” value (TPA-induced ear edema; formulated in 95% ethanol) was −44%, the “% Inhibition of Inflammation” value [1] was 58.12% and the “IC50 IL-1α” value (IL-1α) was 7 µg/mL. The “IC50 IL-10” value (IL-10) was 23 µg/mL, the “IC50 IL-12” value (IL-12) was 34 µg/mL and the “IC50 TNFα” value (TNFα) was 34 µg/mL. For the same substance, the “IC50 IFNγ” value (IFNγ) was 45 µg/mL, the “IC50 IL-6” value (IL-6) was 510 µg/mL and the “IC50 IL-4” value (IL-4) was 115 µg/mL. For the same substance, the “IC50 IL-2” value (IL-2) was >1000 µg/mL.

For “WRWWKVAWRWVKW-NH2 [Peptide 11J30CN, W R W W K V A W R W V K W]”, the “Topical Dose (% change vs. vehicle) 1.0%” value (TPA-induced ear edema; formulated in 95% ethanol) was −26%, the “% Inhibition of Inflammation” value [1] was 94.15% and the “IC50 IL-1α” value (IL-1α) was 25 µg/mL. For the same substance, the “IC50 IL-10” value (IL-10) was 33 µg/mL, the “IC50 IL-12” value (IL-12) was 26 µg/mL and the “IC50 TNFα” value (TNFα) was 36 µg/mL. The “IC50 IFNγ” value (IFNγ) was 28 µg/mL, the “IC50 IL-6” value (IL-6) was 4 µg/mL and the “IC50 IL-4” value (IL-4) was 65 µg/mL. For the same substance, the “IC50 IL-2” value (IL-2) was >1000 µg/mL.

In the case of “Y R Y Y K P K Y R Y P K Y (YRYYKPKYRYPKY-{CN}) [Peptide 11J32CN]”, the “Topical Dose (% change vs. vehicle) 1.0%” value (TPA-induced ear edema; formulated in 95% ethanol) is reported as −30%.
